In general, AC50 refers to the midpoint of the concentration-response curve, whichever way the signal moves.

Inconclusive results are not listed.

The experiment has as its system IOSE-T80 viability, CellTiterGlo ATP luminescence, 96 h. In words: IOSE-T80 viability loss, PAX8-independent line – cell-based, cherry-pick, selectivity assay for PAX8 inhibitor project, dose response (AID 687032).
For the compound `COc1ccc(S(=O)(=O)Nc2ccc3c(c2)CC(=O)N([C@@H](C)CO)C[C@@H](C)[C@@H](CN(C)Cc2ccc(-c4ccccc4)cc2)O3)cc1`, the half-maximal activity concentration (AC50) is less than 260 nM.

As to `O=C(NC12CC3CC(CC(C3)C1)C2)c1ccc([N+](=O)[O-])o1`, the AC50 is less than 260 nM.

On to `COc1ccc(CC2C(=O)NC(C)C(=O)N(C)C3Cc4ccc(cc4)Oc4cc(ccc4O)CC(C(=O)NC(C)C(=O)NC(C)C(=O)N2C)N(C)C3=O)cc1` (stereo not drawn), for which the half-maximal activity concentration (AC50) is 27800 nM.

With `COc1ccc(NC(=O)c2c(Nc3ccccc3)sc(C(=O)c3ccc(F)cc3)c2N)cc1`, the AC50 was less than 260 nM.

In the case of `CCOC(=O)Nc1ccc2c(c1)N(C(=O)CCN(CC)CC)c1ccccc1S2=O` (stereo not drawn), the AC50 is less than 260 nM.

With `Cc1ccc(S(=O)(=O)Nc2cccc3c2O[C@@H](CN(C)Cc2ccc(Oc4ccccc4)cc2)[C@@H](C)CN([C@H](C)CO)C3=O)cc1`, the AC50 is less than 260 nM.

Consider `C[C@@H]1CCCCO[C@@H](CN(C)S(=O)(=O)c2ccc(Cl)cc2)[C@H](C)CN([C@H](C)CO)C(=O)c2cc(NS(=O)(=O)c3ccc(F)cc3)ccc2O1`, for which the AC50 was less than 260 nM.

On to `C[C@H](CO)N1C[C@H](C)[C@H](CN(C)Cc2ccc(C(F)(F)F)cc2)OCCCC[C@H](C)Oc2ccc(NS(=O)(=O)c3ccccc3)cc2C1=O`, for which the AC50 is less than 260 nM.

The record behind these values is PubChem BioAssay AID687032 (Broad Institute, 2013).
